The NIST ThermoML archive (doi:10.1021/je1002829)
Numbers after ± are expanded uncertainties.

Experiment: xn = mol fraction of the nth substance listed
Settings: for mass density: 101 kPa, Liquid, Pycnometric method

CCC(=O)O [propanoic acid] + O
Settings	mass density, 293.15 K [kg/m3]	mass density, 298.15 K [kg/m3]	mass density, 303.15 K [kg/m3]	mass density, 308.15 K [kg/m3]	surface tension liquid-gas, 293.15 K [mN/m]	surface tension liquid-gas, 298.15 K [mN/m]	surface tension liquid-gas, 303.15 K [mN/m]	surface tension liquid-gas, 308.15 K [mN/m]
x1 = 0.00861	–	–	–	–	53.75 ± 1.2	52.45 ± 1.1	52.18 ± 1.1	51.48 ± 1.1
x1 = 0.01457	1000.94 ± 0.37	999.46 ± 0.39	997.79 ± 0.4	996.38 ± 0.41	49.8 ± 1.1	49.01 ± 1.1	48.47 ± 1.1	47.97 ± 1.1
x1 = 0.02075	–	–	–	–	46.86 ± 1.1	46.29 ± 1.1	45.79 ± 1	45.31 ± 1
x1 = 0.03268	1004.5 ± 0.37	1002.95 ± 0.39	1001.28 ± 0.44	998.86 ± 0.48	42.79 ± 1	42.3 ± 0.99	41.69 ± 0.98	41.23 ± 0.98
x1 = 0.0455	–	–	–	–	39.75 ± 0.96	39.16 ± 0.95	38.43 ± 0.94	37.89 ± 0.93
x1 = 0.05436	1008.59 ± 0.42	1006.51 ± 0.43	1004.63 ± 0.46	1002.08 ± 0.5	38.2 ± 0.94	37.55 ± 0.93	36.83 ± 0.92	36.18 ± 0.91
x1 = 0.06602	–	–	–	–	36.71 ± 0.91	36.04 ± 0.91	35.36 ± 0.9	34.61 ± 0.89
x1 = 0.0747	–	–	–	–	35.93 ± 0.9	35.28 ± 0.89	34.6 ± 0.89	33.85 ± 0.87
x1 = 0.0869	1014.63 ± 0.49	1011.95 ± 0.5	1009.33 ± 0.49	1006.91 ± 0.5	35.19 ± 0.89	34.59 ± 0.88	33.85 ± 0.87	33.19 ± 0.87
x1 = 0.1019	1017.46 ± 0.51	1014.23 ± 0.54	1011.41 ± 0.51	1008.86 ± 0.52	–	–	–	–
x1 = 0.1095	–	–	–	–	34.48 ± 0.88	33.94 ± 0.88	33.04 ± 0.86	32.62 ± 0.86
x1 = 0.128	1020.75 ± 0.48	1017.92 ± 0.54	1014.77 ± 0.56	1011.7 ± 0.63	34.1 ± 0.88	33.59 ± 0.87	32.68 ± 0.86	32.35 ± 0.85
x1 = 0.1494	–	–	–	–	33.68 ± 0.87	33.18 ± 0.87	32.43 ± 0.85	32 ± 0.85
x1 = 0.171	1025.1 ± 0.54	1021.28 ± 0.63	1017.58 ± 0.63	1013.89 ± 0.68	33.22 ± 0.87	32.71 ± 0.86	32.27 ± 0.85	31.51 ± 0.84
x1 = 0.1823	–	–	–	–	32.96 ± 0.86	32.45 ± 0.85	32.21 ± 0.85	31.21 ± 0.84
x1 = 0.1947	1025.78 ± 0.59	1022.21 ± 0.63	1018.26 ± 0.67	1014.09 ± 0.7	–	–	–	–
x1 = 0.2318	1026.54 ± 0.64	1022.48 ± 0.67	1018.39 ± 0.69	1014.03 ± 0.73	–	–	–	–
x1 = 0.2485	1026.51 ± 0.68	1022.21 ± 0.68	1018.12 ± 0.69	1013.78 ± 0.72	–	–	–	–
x1 = 0.2755	1026.19 ± 0.69	1021.74 ± 0.69	1017.72 ± 0.7	1013.1 ± 0.74	–	–	–	–
x1 = 0.3043	1025.42 ± 0.68	1021.28 ± 0.68	1017.05 ± 0.71	1012.52 ± 0.75	–	–	–	–
x1 = 0.333	1024.97 ± 0.67	1020.74 ± 0.68	1016.65 ± 0.74	1011.57 ± 0.81	–	–	–	–
x1 = 0.3701	1024.09 ± 0.66	1019.95 ± 0.7	1015.5 ± 0.77	1010.29 ± 0.82	–	–	–	–
x1 = 0.4001	1023.22 ± 0.7	1018.88 ± 0.72	1014.2 ± 0.76	1009.37 ± 0.78	–	–	–	–
